From publication PMC2263054, “Functional evolution of the vitamin D and pregnane X receptors” (BMC Evolutionary Biology, 2007)

Columns and labels:
Xenopus laevis VDR = biological target: T1, Xenopus laevis VDR (Xenopus laevis, UniProt O13124); assay: luciferase reporter transactivation assay in HepG2-NTCP cells, GAL4/xlVDR LBD chimera with tk-UAS-Luc; type: cell-based; conditions: HepG2-NTCP cells, luciferase reporter; unit not given; also cells saying No effect
T1 sequence (O13124 90-422): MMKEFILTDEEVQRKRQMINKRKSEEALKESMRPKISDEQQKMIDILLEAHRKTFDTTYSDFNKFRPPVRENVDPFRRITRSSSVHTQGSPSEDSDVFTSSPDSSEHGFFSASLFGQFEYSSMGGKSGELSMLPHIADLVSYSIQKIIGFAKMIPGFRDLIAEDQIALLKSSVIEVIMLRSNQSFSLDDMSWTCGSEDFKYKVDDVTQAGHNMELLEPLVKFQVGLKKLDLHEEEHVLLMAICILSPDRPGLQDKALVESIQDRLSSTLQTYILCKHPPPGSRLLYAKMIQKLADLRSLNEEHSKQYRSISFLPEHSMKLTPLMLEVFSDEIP

Human VDR = biological target: T2, Human VDR (Homo sapiens, UniProt P11473); assay: luciferase reporter transactivation assay in HepG2-NTCP cells, full-length hVDR with CYP3A4-PXRE-Luc; conditions: HepG2-NTCP cells, luciferase reporter; unit not given; also cells saying No effect
T2 sequence (P11473 1-427): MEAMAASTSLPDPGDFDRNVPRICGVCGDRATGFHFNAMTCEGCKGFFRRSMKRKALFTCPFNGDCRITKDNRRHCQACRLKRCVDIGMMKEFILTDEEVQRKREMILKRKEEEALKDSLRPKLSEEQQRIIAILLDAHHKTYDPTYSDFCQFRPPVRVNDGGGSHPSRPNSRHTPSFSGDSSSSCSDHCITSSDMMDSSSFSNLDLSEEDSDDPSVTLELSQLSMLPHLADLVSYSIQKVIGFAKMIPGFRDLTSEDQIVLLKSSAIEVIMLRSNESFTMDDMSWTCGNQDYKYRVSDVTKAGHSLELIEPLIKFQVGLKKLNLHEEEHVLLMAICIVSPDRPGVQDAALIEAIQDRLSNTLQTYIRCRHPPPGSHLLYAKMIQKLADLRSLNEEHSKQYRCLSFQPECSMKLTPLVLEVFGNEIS

Mouse VDR = biological target: T3, Mouse VDR (Mus musculus, UniProt P48281); assay: luciferase reporter transactivation assay in HepG2-NTCP cells, full-length mVDR with CYP3A4-PXRE-Luc; conditions: HepG2-NTCP cells, luciferase reporter; unit not given; also cells saying No effect
T3 sequence (P48281 1-422): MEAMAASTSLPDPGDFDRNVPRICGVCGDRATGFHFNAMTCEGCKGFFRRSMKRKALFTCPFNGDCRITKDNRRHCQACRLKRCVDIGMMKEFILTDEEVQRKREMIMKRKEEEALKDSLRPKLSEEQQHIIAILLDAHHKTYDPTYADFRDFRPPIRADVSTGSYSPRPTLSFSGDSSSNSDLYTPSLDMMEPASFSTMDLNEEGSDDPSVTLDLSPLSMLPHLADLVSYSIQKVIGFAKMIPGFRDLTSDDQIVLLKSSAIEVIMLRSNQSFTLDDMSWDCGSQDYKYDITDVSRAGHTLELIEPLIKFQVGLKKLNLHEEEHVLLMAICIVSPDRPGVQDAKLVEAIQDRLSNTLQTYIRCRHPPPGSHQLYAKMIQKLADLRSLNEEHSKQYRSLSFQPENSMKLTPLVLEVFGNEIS

[1] = tested on: 6β- and 12α-hydroxylation of testosterone; assay: testosterone hydroxylation (HPLC) in African clawed frog primary hepatocytes; type: cell-based, Xenopus laevis; conditions: relative to vehicle control
Protocol: Xenopus laevis primary hepatocytes were cultured by a protocol adapted from a published report. Frogs are sacrificed with MS-222, rinsed with 70% ethanol, and the liver lobes perfused via the heart, initially with 375 mL Barth (88 mM NaCl, 1 mM K2SO4, and 10 mM HEPES-NaOH, pH 7.4) containing 0.82 mM MgCl2 and 0.1 mg/mL heparin, and then with 25 mL Barth containing 2.22 mM Ca(NO3)2, 2.74 mM CaCl2, and 200 U/mL type I collagenase (Worthington Chemicals, Lakewood, NJ). Livers are minced to fine pieces in 12.5 mL Barth-collagenase solution and then incubated for 10 min at room temperature, periodically disaggregating the liver pieces with a Pasteur pipette. The liver cells are then placed on a shaking incubator for 5 min at room temperature, followed by another 10 min of periodic pipetting to complete disaggregation. Cells are then filtered through a 130 μm Nitex nylon mesh (Fisher Scientific), following by spinning at 500 g for 5 min at 4°C. The supernatant is then aspirated and diluted to 50 mL with Barth plus MgCl2 and then allowed to settle while cooled in ice for 30 min. The supernatant is removed, and the cellular pellet is resuspended and subjected to one more round of nylon mesh filtration, dilution in Barth plus MgCl2, and settling while cooled in ice. The supernatant is removed and the remaining cells are washed once with Barth plus MgCl2 and then centrifuged at 500 g for 5 min at 4°C. The cells are then resuspended in 0.6 × Coon's Modified Ham's F-12 medium (Invitrogen) supplemented with 0.1 × Barth (88 mM NaCl, 1 mM K2SO4, 10 mM HEPES), 200 U/mL penicillin G, 100 μg/mL streptomycin sulfate, 2 mM glutamine, 0.2% glucose, and 10 μg/mL bovine insulin (Calbiochem), with the final pH adjusted to 7.5. […] Cells are cultured at 20°C in ambient atmosphere.
Testosterone metabolites were identified and quantitated by HPLC. […] The supernatant was then injected into the HPLC.

SMILES | Xenopus VDR EC50 ± SD (Xenopus laevis VDR) | Human VDR EC50 ± SD (Human VDR) | Mouse VDR EC50 ± SD (Mouse VDR) | effect on 6β- and 12α-hydroxylation of testosterone [1]
C[C@H](CCCC(CO)COS(=O)(=O)O)[C@H]1CC[C@H]2[C@@H]3[C@H](O)C[C@H]4C[C@H](O)CC[C@]4(C)[C@H]3C[C@H](O)[C@]12C (stereo partly drawn) [5α-Cyprinol 27-sulfate] | No effect | No effect | No effect | neither activity was substantially increased relative to vehicle control
C[C@H](CCCC(CO)CO)[C@H]1CC[C@H]2[C@@H]3[C@H](O)C[C@H]4C[C@H](O)CC[C@]4(C)[C@H]3C[C@H](O)[C@]12C [5α-Cyprinol, 5α-cholestan-3α,7α,12α,26,27-pentol] | No effect | No effect | No effect | neither activity was substantially increased relative to vehicle control
